According to US11198695B2, “Fused ring derivative having MGAT-2 inhibitory activity” (Shionogi & Co., Ltd., priority 2017, dated 2021):
pIC50: −log10 of the molar value.

Target: recombinant human MGAT2 (Homo sapiens (Human), UniProt Q3SYC2)
Experiment: Measurement of human MGAT2 inhibitory activity
Format: biochemical
Conditions: read-out: IC50 (concentration exhibiting 50% enzyme inhibition), Table 53
Outline: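 RapidFire ESI-MS read-out of the diolein/diolein-d5 peak ratio gave % inhibition, with no-enzyme and full-enzyme wells as 100% and 0%. Reactions ran 1 h at room temperature at pH 7.4 (phosphate, 2 mmol/L DTT), using Flag-tagged human MGAT2 membranes from Sf9 cells and a substrate solution of 30 μmol/L 2-oleoylglycerol and 10 μmol/L oleoyl-CoA.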

Sequence of recombinant human MGAT2 (Q3SYC2 whole entry): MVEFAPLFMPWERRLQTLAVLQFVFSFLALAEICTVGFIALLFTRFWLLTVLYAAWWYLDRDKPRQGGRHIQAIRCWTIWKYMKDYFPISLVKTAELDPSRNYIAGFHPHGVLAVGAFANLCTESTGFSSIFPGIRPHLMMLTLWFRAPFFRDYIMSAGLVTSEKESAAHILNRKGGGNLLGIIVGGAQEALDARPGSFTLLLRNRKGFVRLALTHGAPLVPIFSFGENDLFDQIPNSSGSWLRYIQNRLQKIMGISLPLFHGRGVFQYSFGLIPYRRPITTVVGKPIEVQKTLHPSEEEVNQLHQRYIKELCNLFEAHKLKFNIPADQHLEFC

Row | SMILES | pIC50
1 | Cc1cc(-n2nc3c(c2NC(=O)CS(C)(=O)=O)C(=O)N[C@@]2(CCc4cc(OCC(F)(F)F)ccc42)C3)nn1C [II-205] | 8.42
2 | Cc1ccc(-n2nc3c(c2NC(=O)CS(C)(=O)=O)C(=O)N[C@](C)(c2ccc(OCC(F)F)cc2F)C3)nc1 [II-206] | 8.24
3 | CCOc1ccc([C@]2(C)Cc3nn(-c4ccc(C)cn4)c(NC(=O)CS(C)(=O)=O)c3C(=O)N2)c(F)c1 [II-207] | 8.23
4 | Cc1ccc(-n2nc3c(c2NC(=O)CS(C)(=O)=O)C(=O)N[C@](C)(c2ccc(OCC(C)(F)F)cc2F)C3)nc1 [II-208] | 8.51
5 | Cc1ccc(-n2nc3c(c2C(=O)NCCS(N)(=O)=O)C(=O)N[C@@]2(CCc4cc(OCC(F)(F)F)ccc42)C3)cc1F [II-209] | 7.02
6 | Cc1ccc(-n2nc3c(c2C(=O)NCC#N)C(=O)N[C@@]2(CCc4cc(OCC(F)(F)F)ccc42)C3)cc1F [II-219] | 7.08
7 | Cc1ccc(-n2nc3c(c2C(=O)NCC2(CO)CC2)C(=O)N[C@@]2(CCc4cc(OCC(F)(F)F)ccc42)C3)cc1F [II-220] | 8.09
8 | Cc1ccc(-n2nc3c(c2C(=O)NCC2(O)CC2)C(=O)N[C@@]2(CCc4cc(OCC(F)(F)F)ccc42)C3)cc1F [II-221] | 8.16
9 | Cc1ccc(-n2nc3c(c2C(=O)NCC2(C#N)CC2)C(=O)N[C@@]2(CCc4cc(OCC(F)(F)F)ccc42)C3)cc1F [II-222] | 7.27
10 | CS(=O)(=O)CC(=O)Nc1c2c(nn1-c1ccc(F)c(F)c1)C[C@]1(CCOc3cc(C4CC4)ccc31)NC2=O [II-224] | 8.66
11 | Cc1ccc(-n2nc3c(c2C(=O)NS(=O)(=O)C2CC2)C(=O)N[C@@]2(CCc4cc(OCC(F)(F)F)ccc42)C3)cc1F [II-226] | 7.80
12 | Cc1ccc(-n2nc3c(c2C(=O)NCC(F)(F)F)C(=O)N[C@@]2(CCOc4cc(OCC(F)(F)F)ccc42)C3)nc1 [II-227] | 7.02
13 | Cc1ccc(-n2nc3c(c2C(=O)NCC#N)C(=O)N[C@@]2(CCOc4cc(OCC(F)(F)F)ccc42)C3)nc1 [II-228] | 7.43
14 | Cc1ccc(-n2nc3c(c2C(=O)NCC(N)=O)C(=O)N[C@@]2(CCOc4cc(OCC(F)(F)F)ccc42)C3)nc1 [II-229] | 7.19
15 | Cc1ccc(-n2nc3c(c2C(=O)NCC2(O)CC2)C(=O)N[C@@]2(CCOc4cc(OCC(F)(F)F)ccc42)C3)nc1 [II-230] | 7.85
16 | Cc1ccc(-n2nc3c(c2C(=O)NCC2(C#N)CC2)C(=O)N[C@@]2(CCOc4cc(OCC(F)(F)F)ccc42)C3)nc1 [II-231] | 7.01
17 | Cc1ccc(-n2nc3c(c2C(=O)NCC2(C(F)F)CC2)C(=O)N[C@@]2(CCOc4cc(OCC(F)(F)F)ccc42)C3)nc1 [II-232] | 7.17
18 | Cc1ccc(-n2nc3c(c2NC(=O)CS(C)(=O)=O)C(=O)N[C@@]2(CCc4cc(C(F)(F)F)ccc42)C3)nn1 [II-234] | 8.26
19 | Cc1cc(-n2nc3c(c2NC(=O)CS(C)(=O)=O)C(=O)N[C@@]2(CCOc4cc(C5CC5)ccc42)C3)no1 [II-235] | 8.93
20 | CC(C)(F)COc1ccc2c(c1)CC[C@@]21Cc2nn(CCCOC(F)(F)F)c(NC(=O)CS(C)(=O)=O)c2C(=O)N1 [II-236] | 8.27
21 | CS(=O)(=O)CC(=O)Nc1c2c(nn1CCCOC(F)(F)F)C[C@@]1(CCc3cc(OCC(F)(F)C(F)F)ccc31)NC2=O [II-237] | 8.46
22 | Cc1ccc(-n2nc3c(c2C(=O)NCC#N)C(=O)N[C@@](c2ccc(OCC(F)(F)F)cc2F)(C(F)(F)F)C3)nc1 [II-239] | 8.34

Row | SMILES | pIC50
23 | Cc1ccc(-n2nc3c(c2C(=O)NCC(F)(F)F)C(=O)N[C@@](c2ccc(OCC(F)(F)F)cc2F)(C(F)(F)F)C3)nc1 [II-240] | 7.84
24 | Cc1ccc(-n2nc3c(c2C(=O)NCC(N)=O)C(=O)N[C@@](c2ccc(OCC(F)(F)F)cc2F)(C(F)(F)F)C3)nc1 [II-241] | 7.61
25 | Cc1ccc(-n2nc3c(c2C(=O)NCCS(N)(=O)=O)C(=O)N[C@@](c2ccc(OCC(F)(F)F)cc2F)(C(F)(F)F)C3)nc1 [II-242] | 7.59
26 | N#Cc1ccc(-n2nc3c(c2C(=O)NCC(F)(F)F)C(=O)N[C@]2(CCc4cc(OCC(F)(F)F)ccc42)C3)nc1 [II-244] | 8.32
27 | COCCS(=O)(=O)NC(=O)c1c2c(nn1-c1ccc(C)c(F)c1)C[C@]1(CCc3cc(OCC(F)(F)F)ccc31)NC2=O [II-247] | 7.32
28 | Cc1ccc(-n2nc3c(c2NC(=O)CS(C)(=O)=O)C(=O)N[C@@]2(CCOc4cc(OCC(F)(F)F)ccc42)C3)cc1F [II-248] | 8.74
29 | Cc1ccc(-n2nc3c(c2C(=O)NCC2(CO)CC2)C(=O)N[C@@]2(CCOc4cc(OCC(F)(F)F)ccc42)C3)nc1 [II-249] | 7.87
30 | CS(=O)(=O)CC(=O)Nc1c2c(nn1-c1ccc(F)c(F)c1)C[C@]1(CCOc3cc(Cl)ccc31)NC2=O [II-250] | 8.41
31 | Cc1cc(-n2nc3c(c2C(=O)NCC#N)C(=O)N[C@@]2(CCc4cc(OCC(F)(F)F)ccc42)C3)no1 [II-251] | 8.00
32 | Cc1cc(-n2nc3c(c2C(=O)NCC(F)(F)F)C(=O)N[C@@]2(CCc4cc(OCC(F)(F)F)ccc42)C3)no1 [II-252] | 7.65
33 | Cc1cc(-n2nc3c(c2C(=O)NCC(N)=O)C(=O)N[C@@]2(CCc4cc(OCC(F)(F)F)ccc42)C3)no1 [II-253] | 8.37
34 | Cc1cc(-n2nc3c(c2C(=O)NCCS(N)(=O)=O)C(=O)N[C@@]2(CCc4cc(OCC(F)(F)F)ccc42)C3)no1 [II-254] | 7.34
35 | CC(F)(F)COc1ccc2c(c1)CC[C@@]21Cc2nn(CCCOC(F)(F)F)c(NC(=O)CS(C)(=O)=O)c2C(=O)N1 [II-255] | 8.56
36 | CS(=O)(=O)CC(=O)Nc1c2c(nn1-c1cc(C(F)(F)F)on1)C[C@]1(CCOc3cc(OCC(F)(F)F)ccc31)NC2=O [II-256] | 8.28
37 | CC(C)(C)c1cc(-n2nc3c(c2NC(=O)CS(C)(=O)=O)C(=O)N[C@@]2(CCOc4cc(OCC(F)(F)F)ccc42)C3)no1 [II-257] | 9.39
38 | CS(=O)(=O)CC(=O)Nc1c2c(nn1-c1ccc(C(F)F)nn1)C[C@]1(CCc3cc(OCCCC(F)(F)F)ccc31)NC2=O [II-258] | 9.55
39 | CS(=O)(=O)CC(=O)Nc1c2c(nn1-c1ccc(C3CC3)nn1)C[C@]1(CCc3cc(OCCCC(F)(F)F)ccc31)NC2=O [II-259] | 9.36
40 | CS(=O)(=O)CC(=O)Nc1c2c(nn1CCC1CC1)C[C@]1(CCc3c1ccc(N1CC(F)(F)C1)c3F)NC2=O [II-260] | 7.85
41 | CS(=O)(=O)CC(=O)Nc1c2c(nn1CCCOC(F)(F)F)C[C@@]1(CCc3cc(OCC(F)(F)C(F)(F)F)ccc31)NC2=O [II-261] | 9.00
42 | O=C1N[C@@]2(CCc3cc(OCC(F)(F)F)ccc32)Cc2nn(CCCOC(F)F)c(C(=O)NS(=O)(=O)C3CC3)c21 [II-262] | 8.05
43 | Cc1ccc(-n2nc3c(c2NC(=O)CC#N)C(=O)N[C@@]2(CCOc4cc(OCC(F)(F)F)ccc42)C3)nc1 [II-263] | 7.40

Other lines, results leading:

Row | pIC50 | SMILES
44 | 7.53 | Cc1ccc(-n2nc3c(c2C(=O)NCCC(F)(F)F)C(=O)N[C@@]2(CCc4cc(OCC(F)(F)F)ccc42)C3)nc1 [II-195]
45 | 7.73 | Cc1ccc(-n2nc3c(c2C(=O)NCC(N)=O)C(=O)N[C@@]2(CCc4cc(OCC(F)(F)F)ccc42)C3)nc1 [II-196]
46 | 8.17 | Cc1ccc(-n2nc3c(c2C(=O)NCC#N)C(=O)N[C@@]2(CCc4cc(OCC(F)(F)F)ccc42)C3)nc1 [II-197]
47 | 8.38 | Cc1ccc(-n2nc3c(c2C(=O)NCC2(CO)CC2)C(=O)N[C@@]2(CCc4cc(OCC(F)(F)F)ccc42)C3)nc1 [II-198]
48 | 7.13 | Cc1ccc(-n2nc3c(c2C(=O)NCCS(C)(=O)=O)C(=O)N[C@@]2(CCc4cc(OCC(F)(F)F)ccc42)C3)nc1 [II-199]
49 | 8.64 | Cc1ccc(-n2nc3c(c2C(=O)NCC2(O)CC2)C(=O)N[C@@]2(CCc4cc(OCC(F)(F)F)ccc42)C3)nc1 [II-200]
50 | 7.65 | Cc1ccc(-n2nc3c(c2C(=O)NCCS(N)(=O)=O)C(=O)N[C@@]2(CCOc4cc(OCC(F)(F)F)ccc42)C3)nc1 [II-204]
51 | 7.05 | Cc1ccc(-n2nc3c(c2C(=O)NS(=O)(=O)c2ccccc2)C(=O)N[C@@]2(CCc4cc(OCC(F)(F)F)ccc42)C3)nc1 [II-210]
52 | 7.48 | COCCS(=O)(=O)NC(=O)c1c2c(nn1-c1ccc(C)cn1)C[C@]1(CCc3cc(OCC(F)(F)F)ccc31)NC2=O [II-211]
53 | 7.33 | Cc1ccc(-n2nc3c(c2C(=O)NS(=O)(=O)CCC(F)(F)F)C(=O)N[C@@]2(CCc4cc(OCC(F)(F)F)ccc42)C3)nc1 [II-212]
54 | 7.23 | Cc1ccc(-n2nc3c(c2C(=O)NS(=O)(=O)Cc2ccccc2)C(=O)N[C@@]2(CCc4cc(OCC(F)(F)F)ccc42)C3)nc1 [II-213]
55 | 7.58 | CS(=O)(=O)NC(=O)c1c2c(nn1-c1ccc(C#N)cn1)C[C@]1(CCc3cc(OCC(F)(F)F)ccc31)NC2=O [II-214]
56 | 7.11 | N#Cc1ccc(-n2nc3c(c2C(=O)NS(=O)(=O)c2ccccc2)C(=O)N[C@@]2(CCc4cc(OCC(F)(F)F)ccc42)C3)nc1 [II-215]
57 | 6.37 | COCCS(=O)(=O)NC(=O)c1c2c(nn1-c1ccc(C#N)cn1)C[C@]1(CCc3cc(OCC(F)(F)F)ccc31)NC2=O [II-216]
58 | 7.16 | N#Cc1ccc(-n2nc3c(c2C(=O)NS(=O)(=O)CCC(F)(F)F)C(=O)N[C@@]2(CCc4cc(OCC(F)(F)F)ccc42)C3)nc1 [II-217]
59 | 7.17 | N#Cc1ccc(-n2nc3c(c2C(=O)NS(=O)(=O)Cc2ccccc2)C(=O)N[C@@]2(CCc4cc(OCC(F)(F)F)ccc42)C3)nc1 [II-218]
60 | 7.28 | Cc1ccc(-n2nc3c(c2C(=O)NS(C)(=O)=O)C(=O)N[C@@]2(CCc4cc(OCC(F)(F)F)ccc42)C3)cc1F [II-223]
61 | 7.82 | Cc1ccc(-n2nc3c(c2C(=O)NS(C)(=O)=O)C(=O)N[C@@]2(CCc4cc(OCC(F)(F)F)ccc42)C3)nc1 [II-238]
62 | 8.76 | N#CCNC(=O)c1c2c(nn1-c1ccc(C#N)cn1)C[C@@]1(CCc3cc(OCC(F)(F)F)ccc31)NC2=O [II-243]
63 | 7.95 | N#Cc1ccc(-n2nc3c(c2C(=O)NCC(N)=O)C(=O)N[C@]2(CCc4cc(OCC(F)(F)F)ccc42)C3)nc1 [II-245]
64 | 8.43 | N#Cc1ccc(-n2nc3c(c2C(=O)NCCS(N)(=O)=O)C(=O)N[C@]2(CCc4cc(OCC(F)(F)F)ccc42)C3)nc1 [II-246]
